The structures appear in SMILES notation. Like-named read-outs stand apart in the source and are kept apart here.

Assay [1] deals with T1, rat brain N-type calcium channel subunits (α1B+α2δ+β1b cDNA subunits) (Rattus norvegicus, UniProt Q02294).
T1 construct: expressed in transfected cells; host or cells: HEK 293 (stably, alternatively transiently, transfected)
Briefly: N-type calcium channel block, whole cell patch clamp in HEK 293 cells. The note with it: holding potential −80 mV to +10 mV. Format: cell-based. How it is done:
A. Transformation of HEK Cells: • N-type calcium channel blocking activity was assayed in human embryonic kidney cells, HEK 293, stably transfected with the rat brain N-type calcium channel subunits (α1B+α2δ+β1b cDNA subunits). Alternatively, N-type calcium channels (α1B+α2δ+β1b cDNA subunits), L-type channels (α1C+α2δ+β1b cDNA subunits) and P/Q-type channels (α1A+α2δ+β1b cDNA subunits) were transiently expressed in HEK 293 cells. Briefly, cells were cultured in Dulbecco's modified eagle medium (DMEM) supplemented with 10% fetal bovine serum, 200 U/ml penicillin and 0.2 mg/ml streptomycin at 37° C. with 5% CO2. At 85% confluency cells were split with 0.25% trypsin/1 mM EDTA and plated at 10% confluency on glass coverslips. At 12 hours the medium was replaced and the cells transiently transfected using a standard calcium phosphate protocol and the appropriate calcium channel cDNA's. Fresh DMEM was supplied and the cells transferred to 28° C./5% CO2. Cells were incubated for 1 to 2 days prior to whole cell recording.
B. Measurement of Inhibition
Whole cell patch clamp experiments were performed using an Axopatch 200B amplifier (Axon Instruments, Burlingame, Calif.) linked to a personal computer equipped with pCLAMP software. The external and internal recording solutions contained, respectively, 5 mM BaCl2, 10 mM MgCl2, 10 mM HEPES, 40 mM TEACl, 10 mM glucose, 87.5 mM CsCl (pH 7.2) and 108 mM CsMS, 4 mM MgCl2, 9 mM EGTA, 9 mM HEPES (pH 7.2). Currents were typically elicited from a holding potential of −80 mV to +10 mV using Clampex software (Axon Instruments). Typically, currents were first elicited with low frequency stimulation (0.067 Hz) and allowed to stabilize prior to application of the compounds. The compounds were then applied during the low frequency pulse trains for two to three minutes to assess tonic block, and subsequently the pulse frequency was increased to 0.2 Hz to assess frequency dependent block. Data were analyzed using Clampfit (Axon Instruments) and SigmaPlot 4.0 (Jandel Scientific).
Background: Patch clamp records ionic current or voltage across a cell membrane.

The target of assay [2] is T2, human α1G T-type channels (Homo sapiens, UniProt O43497).
T2 construct: expressed in transfected cells
Kind of assay: T-type calcium channel block, patch clamp in HEK cell lines. To be noted: mainly non-inactivated protocol; HEK cells expressing human α1G; read-out: IC50 @ −80 mV. It counts as cell-based.

In assay [3] the test system is tactile allodynia after L5/L6 spinal nerve ligation. Briefly: Spinal nerve ligation model of neuropathic pain, tactile allodynia (von Frey). To be noted: SNL rats; orally in propylene glycol solution, 300 mg/kg. It counts as in vivo, rat. The source says:
Spinal nerve ligation (SNL) injury was induced using the procedure of Kim and Chung, (Kim, S. H., et al., Pain (1992) 50:355-363) in male Sprague-Dawley rats (Harlan; Indianapolis, Ind.) weighing 200 to 300 grams. Anesthesia was induced with 2% halothane in O2 at 2 L/min and maintained with 0.5% halothane in O2. After surgical preparation of the rats and exposure of the dorsal vertebral column from L4 to S2, the L5 and L6 spinal nerves were tightly ligated distal to the dorsal root ganglion using 4-0 silk suture. The incision was closed, and the animals were allowed to recover for 5 days. […] Sham control rats underwent the same operation and handling as the experimental animals, but without SNL. The assessment of tactile allodynia consisted of measuring the withdrawal threshold of the paw ipsilateral to the site of nerve injury in response to probing with a series of calibrated von Frey filaments. Each filament was applied perpendicularly to the plantar surface of the ligated paw of rats kept in suspended wire-mesh cages. Measurements were taken before and after administration of drug or vehicle. Withdrawal threshold was determined by sequentially increasing and decreasing the stimulus strength (“up and down” method), analyzed using a Dixon non-parametric test (Chaplan S. R., et al., J Pharmacol Exp Ther (1994) 269:1117-1123), and expressed as the mean withdrawal threshold.

For assay [4], the system named is T-type over L-type channels. The note with it: cited from earlier work.
[5] abbreviates: low frequency stimulation 0.067 Hz (tonic block), read-out: IC50 @ 0.067 Hz.
The mark [6] stands for this setting: pulse frequency 0.2 Hz (frequency dependent block), read-out: IC50 @ 0.2 Hz.

T2 sequence (O43497 whole entry): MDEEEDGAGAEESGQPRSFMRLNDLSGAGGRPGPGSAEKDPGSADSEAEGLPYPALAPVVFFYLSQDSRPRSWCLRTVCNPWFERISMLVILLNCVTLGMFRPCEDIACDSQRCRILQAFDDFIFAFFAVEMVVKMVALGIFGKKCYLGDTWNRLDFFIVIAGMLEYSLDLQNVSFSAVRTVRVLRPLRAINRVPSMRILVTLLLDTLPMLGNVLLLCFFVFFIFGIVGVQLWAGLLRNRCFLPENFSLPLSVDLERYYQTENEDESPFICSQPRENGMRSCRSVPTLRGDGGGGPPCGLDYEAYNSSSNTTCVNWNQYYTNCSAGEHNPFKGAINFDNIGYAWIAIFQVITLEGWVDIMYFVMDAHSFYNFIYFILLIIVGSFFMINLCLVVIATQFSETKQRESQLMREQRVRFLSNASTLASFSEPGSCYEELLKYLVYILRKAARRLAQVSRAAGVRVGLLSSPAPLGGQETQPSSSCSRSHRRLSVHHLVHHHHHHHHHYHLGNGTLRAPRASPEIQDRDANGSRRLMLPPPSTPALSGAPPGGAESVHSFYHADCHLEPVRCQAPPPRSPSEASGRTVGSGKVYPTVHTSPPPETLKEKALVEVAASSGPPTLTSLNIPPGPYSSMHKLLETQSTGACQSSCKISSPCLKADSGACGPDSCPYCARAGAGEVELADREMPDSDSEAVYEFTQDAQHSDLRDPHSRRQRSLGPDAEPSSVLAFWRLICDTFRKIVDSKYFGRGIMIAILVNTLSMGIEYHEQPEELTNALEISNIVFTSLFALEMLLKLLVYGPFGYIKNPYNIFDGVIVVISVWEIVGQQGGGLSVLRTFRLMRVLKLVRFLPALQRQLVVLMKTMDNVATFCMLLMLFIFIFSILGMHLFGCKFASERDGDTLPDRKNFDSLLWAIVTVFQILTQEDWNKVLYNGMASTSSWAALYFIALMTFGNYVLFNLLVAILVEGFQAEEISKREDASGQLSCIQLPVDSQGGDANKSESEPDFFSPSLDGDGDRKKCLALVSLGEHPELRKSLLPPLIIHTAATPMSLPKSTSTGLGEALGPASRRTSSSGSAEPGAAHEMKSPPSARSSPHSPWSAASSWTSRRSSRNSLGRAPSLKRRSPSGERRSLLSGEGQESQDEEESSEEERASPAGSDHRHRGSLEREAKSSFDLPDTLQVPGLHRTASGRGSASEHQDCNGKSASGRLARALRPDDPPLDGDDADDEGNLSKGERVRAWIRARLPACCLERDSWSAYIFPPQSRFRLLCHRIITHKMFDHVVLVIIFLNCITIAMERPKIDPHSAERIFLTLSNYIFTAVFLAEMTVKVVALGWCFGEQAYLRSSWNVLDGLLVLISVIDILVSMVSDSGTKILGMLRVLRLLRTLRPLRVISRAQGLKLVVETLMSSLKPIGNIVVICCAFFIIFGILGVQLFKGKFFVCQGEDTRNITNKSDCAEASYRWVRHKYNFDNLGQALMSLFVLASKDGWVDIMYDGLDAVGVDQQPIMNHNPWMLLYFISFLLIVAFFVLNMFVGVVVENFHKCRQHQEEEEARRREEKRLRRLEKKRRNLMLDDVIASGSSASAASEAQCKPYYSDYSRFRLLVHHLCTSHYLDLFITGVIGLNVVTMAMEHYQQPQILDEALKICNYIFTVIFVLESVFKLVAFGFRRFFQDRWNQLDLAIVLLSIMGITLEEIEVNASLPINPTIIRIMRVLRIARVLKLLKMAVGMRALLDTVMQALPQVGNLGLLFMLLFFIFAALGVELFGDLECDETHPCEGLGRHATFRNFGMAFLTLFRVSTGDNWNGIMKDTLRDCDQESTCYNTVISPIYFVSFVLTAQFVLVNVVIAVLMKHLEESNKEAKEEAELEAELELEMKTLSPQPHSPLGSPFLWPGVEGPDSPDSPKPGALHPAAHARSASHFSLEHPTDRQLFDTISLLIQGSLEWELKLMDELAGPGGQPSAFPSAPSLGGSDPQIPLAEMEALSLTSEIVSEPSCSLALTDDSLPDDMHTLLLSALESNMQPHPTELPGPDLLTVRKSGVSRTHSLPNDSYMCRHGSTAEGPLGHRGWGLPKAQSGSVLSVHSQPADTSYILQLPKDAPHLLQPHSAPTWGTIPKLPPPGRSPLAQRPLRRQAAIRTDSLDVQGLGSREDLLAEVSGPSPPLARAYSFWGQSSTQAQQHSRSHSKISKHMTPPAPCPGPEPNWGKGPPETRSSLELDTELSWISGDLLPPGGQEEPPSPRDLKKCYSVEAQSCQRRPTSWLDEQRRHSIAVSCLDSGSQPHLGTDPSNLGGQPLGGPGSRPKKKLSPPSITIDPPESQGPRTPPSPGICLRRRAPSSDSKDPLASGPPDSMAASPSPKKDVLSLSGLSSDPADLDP

Usually IC50 stands for the concentration that gives 50% inhibition. Take `O=C(CNC(c1ccccc1)c1ccccc1)N1CCN(C(c2ccccc2)c2ccccc2)CC1` [Compound 1, 2-benzhydrylamino-1-(4-benzhydrylpiperazin-1-yl)ethanone]: the IC50 in assay [1] (setting [5]) was found to be 140 nM; in assay [1] (setting [6]), 80 nM; in assay [2] it was 80 nM.

On to `CN(CC(=O)N1CCN(C(c2ccccc2)c2ccccc2)CC1)C(c1ccccc1)c1ccccc1` [Compound 2, 2-benzhydryl(methyl)amino-1-(4-benzhydrylpiperazin-1-yl)ethanone], for which the IC50 in assay [1] (setting [5]) was 520 nM; in assay [1] (setting [6]) it was 310 nM; in assay [2] it was 2900 nM.

`CN(CC(=O)N1CCN(C(c2ccccc2)c2ccc(F)cc2)CC1)C(c1ccccc1)c1ccccc1` (centres unmarked) [Compound 6, 2-benzhydryl(methyl)amino-1-(4-((4-fluorophenyl)(phenyl)methyl)piperazin-1-yl)ethanone]: the IC50 was found to be 170 nM in assay [1] (setting [5]), 120 nM in assay [1] (setting [6]) and 2000 nM in assay [2].

Regarding `O=C(COc1ccc(Cl)cc1Cl)N1CCN(C(c2ccccc2)c2ccccc2)CC1` [Compound 26, 1-(4-benzhydrylpiperazin-1-yl)-2-(2,4-dichlorophenoxy)ethanone], the IC50 turned out to be 250 nM in assay [1] (setting [5]), 190 nM in assay [1] (setting [6]) and 1260 nM in assay [2].

For the molecule `O=C(CNC(c1ccccc1)c1ccccc1)N1CCN(C(c2ccc(F)cc2)c2ccc(F)cc2)CC1` [Compound 29, 2-(benzhydrylamino)-1-(4-(bis(4-fluorophenyl)methyl)piperazin-1-yl)ethanone], the results for the IC50 in assay [1] (setting [5]), in assay [1] (setting [6]) and in assay [2] were 270 nM, 140 nM and 9690 nM, respectively.

For `O=C(COC(c1ccccc1)c1ccccc1)N1CCN(C(c2ccccc2)c2ccccc2)CC1` [Compound 30, 2-(benzhydryloxy)-1-(4-benzhydrylpiperazin-1-yl)ethanone], the results for the IC50 in assay [1] (setting [5]), in assay [1] (setting [6]) and in assay [2] were 490 nM, 270 nM and 590 nM, respectively.

Take `O=C(COC(c1ccccc1)c1ccccc1)N1CCN(C(c2ccc(F)cc2)c2ccc(F)cc2)CC1` [Compound 46, 2-(benzhydryloxy)-1-(4-(bis(4-fluorophenyl)methyl)piperazin-1-yl)ethanone]: the IC50 came out at 920 nM in assay [1] (setting [5]), 430 nM in assay [1] (setting [6]) and 350 nM in assay [2].

On to `O=C(C[S+]([O-])C(c1ccccc1)c1ccccc1)N1CCN(C(c2ccc(F)cc2)c2ccc(F)cc2)CC1` (centres unmarked) [Compound 48, 2-(benzhydrylsulfinyl)-1-(4-(bis(4-fluorophenyl)methyl)piperazin-1-yl)ethanone], for which the IC50 is 220 nM in assay [1] (setting [5]), 160 nM in assay [1] (setting [6]) and 310 nM in assay [2].

With `O=C(CNC(c1ccccc1)c1ccccc1)N1CCN(C(c2ccccc2)c2ccccc2)C(CO)C1` (centres unmarked) [Compound 49, 2-benzhydrylamino-1-(4-benzhydryl-3-hydroxymethylpiperazin-1-yl)ethanone], the half-inhibitory concentration (IC50) in assay [1] (setting [5]) was 490 nM; in assay [1] (setting [6]), 290 nM; in assay [2], 370 nM. Besides, the reversal of allodynia result in assay [3] was “complete reversal of allodynia”.

For the molecule `O=C(C[S+]([O-])C(c1ccccc1)c1ccccc1)N1CCN(C(c2ccccc2)c2ccccc2)C(CO)C1` (centres unmarked) [Compound 52, 1-(4-benzhydryl-3-hydroxymethylpiperazin-1-yl)-2-(benzhydrylsulfinyl)ethanone], the concentration for half-maximal inhibition (IC50) turned out to be 1230 nM in assay [1] (setting [5]) and 970 nM in assay [1] (setting [6]).

Consider `COCC1CN(C(=O)CNC(c2ccccc2)c2ccccc2)CCN1C(c1ccccc1)c1ccccc1` (centres unmarked) [Compound 53, 2-benzhydrylamino-1-(4-benzhydryl-3-methoxymethylpiperazin-1-yl)ethanone], for which the IC50 in assay [1] (setting [5]) worked out at 250 nM; in assay [1] (setting [6]), 150 nM; in assay [2] it was 490 nM.

On to `COCC1CN(C(=O)COC(c2ccccc2)c2ccccc2)CCN1C(c1ccccc1)c1ccccc1` (centres unmarked) [Compound 54, 2-(benzhydryloxy)-1-(4-benzhydryl-3-methoxymethylpiperazin-1-yl)ethanone], for which the IC50 in assay [1] (setting [5]) was 330 nM; in assay [1] (setting [6]), 210 nM.

Regarding `COCC1CN(C(=O)C[S+]([O-])C(c2ccccc2)c2ccccc2)CCN1C(c1ccccc1)c1ccccc1` (centres unmarked) [Compound 56, 1-(4-benzhydryl-3-methoxymethylpiperazin-1-yl)-2-(benzhydrylsulfinyl)ethanone], the figures for the IC50 in assay [1] (setting [5]) and in assay [1] (setting [6]) were 180 nM and 130 nM, respectively.

Regarding `COCC(=O)O[C@]1(CCN(C)CCCc2nc3ccccc3[nH]2)CCc2cc(F)ccc2[C@@H]1C(C)C` [Mibefradil], in assay [4], the “selectivity for T-type over L-type channels” value is recorded as 10-30 fold.

Source of the values: patent US20090221603A1, “HETEROCYCLIC AMIDE DERIVATIVES AS CALCIUM CHANNEL BLOCKERS” (priority 2005, published 2009).
